The structures appear in SMILES notation. Inconclusive results are not listed.

Experimental findings from PubChem BioAssay AID1590 (NINDS Approved Drug Screening Program, 2009) are described below.

The assay has as its system PC12 inducible Htt-N63-148Q toxicity rescue. As to the kind of experiment: rescue from Htt-N63-148Q induced toxicity, dose response, PC12 cells, inducible expression, ROSShtt (AID 1590).

Usually EC50 stands for the concentration giving half of the maximal effect. On to `N[C@H](C(=O)O)[C@@H]1CC(Cl)=NO1`, for which the EC50 is 10 µM.

In the case of `O=C(O)C1CCCNC1` (stereo unspecified), the half-maximal effective concentration (EC50) is 10 µM.

In the case of `C=C1c2cccc(O)c2C(O)=C2C(=O)[C@]3(O)C(O)=C(C(N)=O)C(=O)[C@@H](N(C)C)[C@@H]3[C@@H](O)[C@H]12`, the EC50 was 0.01 µM.

For the compound `CCN(Cc1ccncc1)C(=O)C(CO)c1ccccc1` (stereo unspecified), the EC50 was 0.01 µM.

`COc1c(C)c2c(c(O)c1C/C=C(\C)CCC(=O)O)C(=O)OC2`: the half-maximal effective concentration (EC50) is 10 µM.

As to `C=C1c2c(Cl)ccc(O)c2C(O)=C2C(=O)[C@]3(O)C(O)=C(C(N)=O)C(=O)[C@@H](N(C)C)[C@@H]3[C@@H](O)[C@H]12`, the EC50 is 0.01 µM.

Consider `CN(C)[C@@H]1C(=O)C(C(N)=O)=C(O)[C@@]2(O)C(=O)C3=C(O)c4c(O)cccc4[C@@](C)(O)[C@H]3C[C@@H]12`, for which the EC50 is 0.1 µM.

On to `CN(C)[C@@H]1C(=O)C(C(N)=O)=C(O)[C@@]2(O)C(=O)C3=C(O)c4c(O)ccc(Cl)c4[C@@H](O)[C@H]3C[C@@H]12`, for which the EC50 was 1 µM.

Consider `CN(C)[C@@H]1C(=O)C(C(N)=O)=C(O)[C@@]2(O)C(=O)C3=C(O)c4c(O)cccc4[C@@](C)(O)[C@H]3[C@H](O)[C@@H]12`, for which the half-maximal effective concentration (EC50) is 1 µM.

As to `CCCNCC(O)COc1ccccc1C(=O)CCc1ccccc1` (stereo unspecified), the EC50 is 10 µM.

With `CC(C)NCC(O)c1ccc(O)c(O)c1` (stereo unspecified), the EC50 was 15 µM.
